Source: US10647690B2, “2,3-epoxy succinyl derivative, preparation method and use thereof” (Institute of Pharmacology and Toxicology Academy of …, priority 2016, dated 2020)
Read-outs that look alike come from different tables or passages of the source.

Target: T1, Cathepsin K (Homo sapiens, UniProt P43235)
T1 construct: purchased Biovision K150-100
T1 sequence (P43235 115-329): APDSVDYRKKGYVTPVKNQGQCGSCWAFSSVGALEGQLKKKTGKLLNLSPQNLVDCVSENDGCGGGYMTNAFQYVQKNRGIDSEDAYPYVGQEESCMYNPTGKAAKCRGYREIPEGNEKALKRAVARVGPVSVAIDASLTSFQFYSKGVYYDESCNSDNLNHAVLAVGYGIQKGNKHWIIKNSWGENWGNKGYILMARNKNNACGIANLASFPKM
Assay: Preliminary screening of Cathepsin K (Cathepsin K Inhibitor Screening Kit K150-100, Biovision)
Format: biochemical
Details: relative inhibition rate vs 10 μM FF-FMK control
Experimental: 1. Method for preliminary screening of Cathepsin K:
Preliminary screening of Cathepsin K was performed by using Cathepsin K Inhibitor Screening Kit (Product No. K150-100) from Biovision Company.
1.1.1 Preparation of Cathepsin K enzyme solution: Cathepsin K enzyme (40 μl) and Cathepsin K reagent (80 μl) were added to Cathepsin K buffer (3.88 ml), and were mixed well, to prepare Cathepsin K enzyme solution with a volume of 4 ml, which was placed on ice for further use.
1.1.2 Preparation of a compound solution: different compounds were separately weighed and dissolved in DMSO (methyl sulfoxide), to prepare solutions at a concentration of 30 mM as stock solutions, and for some insoluble compounds, they were prepared into solutions at a concentration of 10 mM as stock solutions; the 30 mM and 10 mM compound stock solutions were diluted to 1 mM and 100 μM DMSO solutions, respectively; 1 mM and 100 μM compound DMSO solutions (2 μl) were separately added to CTSK buffer (18 μl), to prepare compound solutions at a final concentration of 100 μM and 10 μM, respectively, wherein the concentration of DMSO was 10%.
1.1.3 Preparation of Cathepsin K substrate solution: Cathepsin K substrate (160 μl) was added to Cathepsin K buffer (3.44 ml), and mixed homogeneously, to prepare Cathepsin K substrate solution with a volume of 3.6 ml, which was placed on ice for further use.
1.2 Method for screening Cathepsin K inhibitor: Cathepsin K enzyme solution (prepared in Item 1.1.1) was added to a 384-well plate (ProxiPlate-384 Plus, Perkinelmer) at 10 μl/well, and centrifuged at 1000 rpm for 1 min; the compound solution (prepared in Item 1.1.2) was then added at 2 µl/well, and centrifuged at 1000 rpm for 1 min, and every concentration was repeated in two wells; the plate was placed in a 25° C. incubator for 15 min; Cathepsin K substrate solution was then added at 8 μl/well, and centrifuged at 1000 rpm for 1 min; and finally, the fluorescence signal was read in Enspire, wherein the exciting light was at a wavelength of 400 nm, the emitting light was at a wavelength of 505 nm, and continuous reading was performed at 37° C. for 120 min.
1.3 Data analysis: the slope (S) for all the samples was calculated by ΔRFU (RFU2−RFU1) and time ΔT (T2−T1), including negative control (Enzyme Control, EC) and positive control (Inhibitor Control, IC: 10 μM FF-FMK), and the calculation formula was as followed: Relative inhibition rate %=(SEC−SS)/(SEC−SIC)*100.

[1] = 1 μM compound, replicate 1, read-out: Inhibition % (1 μM) replicate 1
[2] = 1 μM compound, replicate 2, read-out: Inhibition % (1 μM) replicate 2
[3] = 10 μM compound, replicate 1, read-out: Inhibition % (10 μM) replicate 1
[4] = 10 μM compound, replicate 2, read-out: Inhibition % (10 μM) replicate 2

SMILES | inhibition at 1 µM [1] [%] | inhibition at 1 µM [2] [%] | inhibition at 10 µM [3] [%] | inhibition at 10 µM [4] [%] | Inhibition % (1 μM) replicate 1 (1 μM compound, replicate 1) [%] | Inhibition % (1 μM) replicate 2 (1 μM compound, replicate 2) [%] | Inhibition % (10 μM) replicate 1 (10 μM compound, replicate 1) [%] | Inhibition % (10 μM) replicate 2 (10 μM compound, replicate 2) [%]
CCOC(=O)[C@H]1O[C@@H]1C(=O)N[C@@H](CCSC)C(=O)NCC(C)(C)C [Compound 30, (2s, 3s)-2-ethoxycarbonyl-3-[2-[(s)-4-methylthio-1-carbonyl-1-(neopentylamino)butane]formylamino]epoxysuccinic acid] | 31.6 | 26.9 | 29.6 | 31.7 |  |  |  | 
CCOC(=O)[C@H]1O[C@@H]1C(=O)N[C@@H](CCSC)C(=O)NC(C)(C)CC [Compound 31, (2s, 3s)-2-ethoxycarbonyl-3-[2-[(s)-4-methylthio-1-carbonyl-1-(tert-pentylamino)butane]formylamino]epoxysuccinic acid] | 30.5 | 36.6 | 44.1 | 45.4 |  |  |  | 
CCOC(=O)[C@H]1O[C@@H]1C(=O)N[C@@H](CCSC)C(=O)NC(C)CC (some centres unmarked) [Compound 32] | 37.5 | 38.7 | 36.2 | 40.6 |  |  |  | 
CCOC(=O)[C@H]1O[C@@H]1C(=O)N[C@@H](CCSC)C(=O)NCCc1ccc(C)cc1 [Compound 33, (2s, 3s)-2-ethoxycarbonyl-3-[2-[(s)-4-methylthio-1-carbonyl-1-(p-methylphenylethylamino)butane]formylamino]epoxysuccinic acid] | 36.6 | 33.1 | 34.9 | 36 |  |  |  | 
CCOC(=O)[C@H]1O[C@@H]1C(=O)N[C@@H](CCSC)C(=O)N1CCCCC1CC (some centres unmarked) [Compound 35, (2s, 3s)-2-ethoxycarbonyl-3-[2-[(s)-4-methylthio-1-carbonyl-1-(2-ethylpiperidinyl)butane]formylamino]epoxysuccinic acid] | 37.8 | 22.8 | 72 | 61.1 |  |  |  | 
CCOC(=O)[C@H]1O[C@@H]1C(=O)N[C@@H](CCSC)C(=O)N1CCSC1 [Compound 38, (2s, 3s)-2-ethoxycarbonyl-3-[2-[(s)-4-methylthio-1-carbonyl-1-(tetrahydrothiazolyl)butane]formylamino]epoxysuccinic acid] | 36.8 | 37.9 | 44.3 | 41.4 |  |  |  | 
CCOC(=O)[C@H]1O[C@@H]1C(=O)N[C@@H](CCSC)C(=O)N1CC(C)CC(C)C1 (some centres unmarked) [Compound 41, (2s, 3s)-2-ethoxycarbonyl-3-[2-[(s)-4-methylthio-1-carbonyl-1-(3,5-dimethylpiperidinyl)butane]formylamino]epoxysuccinic acid] | 32.1 | 30.8 | 64.2 | 61 |  |  |  | 

Now from value to molecule:

inhibition at 1 µM [1] [%] | inhibition at 1 µM [2] [%] | inhibition at 10 µM [3] [%] | inhibition at 10 µM [4] [%] | Inhibition % (1 μM) replicate 1 (1 μM compound, replicate 1) [%] | Inhibition % (1 μM) replicate 2 (1 μM compound, replicate 2) [%] | Inhibition % (10 μM) replicate 1 (10 μM compound, replicate 1) [%] | Inhibition % (10 μM) replicate 2 (10 μM compound, replicate 2) [%] | SMILES
16 | -4.45 | 29.7 | 19.5 |  |  |  |  | CCOC(=O)[C@H]1O[C@@H]1C(=O)N[C@@H](CSCc1ccccc1)C(=O)N1CCCC1 [Compound 22, (2s, 3s)-2-ethoxycarbonyl-3-[2-[(s)-3-benzylthio-1-carbonyl-1-(tetrahydropyrrolyl)propane]formylamino]epoxysuccinic acid]
16.1 | 37.7 | 70.1 | 63 |  |  |  |  | CCOC(=O)[C@H]1O[C@@H]1C(=O)N[C@@H](CSCc1ccccc1)C(=O)N1CCC(c2ccccc2)CC1 [Compound 23, (2s, 3s)-2-ethoxycarbonyl-3-[2-[(s)-3-benzylthio-1-carbonyl-1-(4-phenylpiperidinyl)propane]formylamino]epoxysuccinic acid]
 |  |  |  | 35.73 | 44.11 | 67.87 | 63.25 | CCOC(=O)[C@H]1O[C@@H]1C(=O)N[C@H](CSCc1ccccc1)C(=O)NCCc1ccc(OC)cc1 [Compound 26, (2s, 3s)-2-ethoxycarbonyl-3-[2-[(s)-3-benzylthio-1-carbonyl-1-(4-methoxyphenylethylamino)propane]formylamino]epoxysuccinic acid]
17.5 | 21.6 | 61.4 | 63.5 |  |  |  |  | CCOC(=O)[C@H]1O[C@@H]1C(=O)N[C@@H](CCSC)C(=O)N1CCSCC1 [Compound 36, (2s, 3s)-2-ethoxycarbonyl-3-[2-[(s)-4-methylthio-1-carbonyl-1-(thiomorpholinyl)butane]formylamino]epoxysuccinic acid]
